From ChEMBL document CHEMBL1201862, “PubChem BioAssay data set” (2004)
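Growth conditions: 96-well plates. Treatment: test compound, 48 hours, 5 concentrations. Analysis: linear interpolation between bracketing concentrations; unreached endpoints set to highest concentration. Here, GI50 denotes the concentration required for 50% inhibition of growth.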 Active and inactive are the calls of the source. Cut-off read from the data, not from the text of the source: active = GI50 up to about 1.1 µM and inactive = higher.

Tests used:
Assay in all cases: growth of human tumour cells (NCI), 48 h
NCI-H23 = system: NCI-H23
T47D = system: T47D
PC-3 = system: PC-3
MDA-N = system: MDA-N
UACC-62 = system: UACC-62
DU-145 = system: DU-145
SK-MEL-2 = system: SK-MEL-2
CCRF-CEM = system: CCRF-CEM
HL-60 = system: HL-60
HOP-92 = system: HOP-92
Malme-3M = system: Malme-3M
SF-295 = system: SF-295
SNB-19 = system: SNB-19
Hs-578T = system: Hs-578T
K562 = system: K562
NCI/ADR-RES = system: NCI/ADR-RES
SNB-75 = system: SNB-75
CAKI-1 = system: CAKI-1
OVCAR-4 = system: OVCAR-4
SF-539 = system: SF-539

| SMILES | GI50 (NCI-H23) | GI50 (T47D) | GI50 (PC-3) | GI50 (MDA-N) | GI50 (UACC-62) | GI50 (DU-145) | GI50 (SK-MEL-2) | GI50 (CCRF-CEM) | GI50 (HL-60) | GI50 (HOP-92) | GI50 (Malme-3M) | GI50 (SF-295) | GI50 (SNB-19) | GI50 (Hs-578T) | GI50 (K562) | GI50 (NCI/ADR-RES) | GI50 (SNB-75) | GI50 (CAKI-1) | GI50 (OVCAR-4) | GI50 (SF-539) |
| --- | --- | --- | --- | --- | --- | --- | --- | --- | --- | --- | --- | --- | --- | --- | --- | --- | --- | --- | --- | --- |
| CC(=O)N(CCc1ccccc1)C(C)(C#N)c1ccccc1 (stereo not given) | > 100 µM (inactive) | > 100 µM (inactive) | > 100 µM (inactive) | > 100 µM (inactive) | > 100 µM (inactive) | > 100 µM (inactive) | > 100 µM (inactive) | > 100 µM (inactive) | > 100 µM (inactive) | > 100 µM (inactive) | > 100 µM (inactive) | > 100 µM (inactive) | > 100 µM (inactive) | > 100 µM (inactive) | > 100 µM (inactive) | > 100 µM (inactive) | > 100 µM (inactive) | > 100 µM (inactive) | > 100 µM (inactive) | > 100 µM (inactive) |
| CC(=O)O[C@H]1C#C/C=C\C#CC[C@@H]2C(=O)N(C(=O)OC(C)(C)C)[C@@H]12 | 12.6 µM (inactive) | 32.7 µM (inactive) | > 67.3 µM (inactive) | 39.4 µM (inactive) | 14.8 µM (inactive) | 19.9 µM (inactive) | 41.2 µM (inactive) | 1.52 µM (inactive) | 2.45 µM (inactive) | 26.9 µM (inactive) | 7.87 µM (inactive) | 21.3 µM (inactive) | 18.7 µM (inactive) | 39.6 µM (inactive) | 25.7 µM (inactive) | 15.7 µM (inactive) | 21.5 µM (inactive) | 6.46 µM (inactive) | > 100 µM (inactive) | 1.67 µM (inactive) |
| CC(=O)OC1CC2CC(=O)CC1N2C (stereo not given) | > 100 µM (inactive) | > 100 µM (inactive) | > 100 µM (inactive) | > 100 µM (inactive) | > 100 µM (inactive) | > 100 µM (inactive) | > 100 µM (inactive) | > 100 µM (inactive) | > 100 µM (inactive) | > 100 µM (inactive) | > 100 µM (inactive) | > 100 µM (inactive) | > 100 µM (inactive) | > 100 µM (inactive) | > 100 µM (inactive) | > 100 µM (inactive) | > 100 µM (inactive) | > 100 µM (inactive) | > 100 µM (inactive) | > 100 µM (inactive) |
| COc1ccc2/c(=C/c3ccc(N(C)C)cc3)c3cc(-c4ccccc4)[n+](C)n3c2c1 | 0.158 µM (active) | 0.0805 µM (active) | 0.09 µM (active) | 0.0889 µM (active) | 0.199 µM (active) | 0.179 µM (active) | 0.18 µM (active) | 0.395 µM (active) | 0.0218 µM (active) | 0.0931 µM (active) | 0.191 µM (active) | 0.194 µM (active) | 0.134 µM (active) | 0.142 µM (active) | 0.057 µM (active) | 9.66 µM (inactive) | 0.285 µM (active) | 1.2 µM (inactive) | 0.347 µM (active) | 0.495 µM (active) |
| O=C(Oc1cccnc1)c1cc2cc(CCl)ccc2oc1=O | 19.6 µM (inactive) | 23.3 µM (inactive) | 17.3 µM (inactive) | 26.5 µM (inactive) | 8.71 µM (inactive) | 18.8 µM (inactive) | 21.7 µM (inactive) | 20.7 µM (inactive) | 22.8 µM (inactive) | 20.6 µM (inactive) | 22.7 µM (inactive) | > 100 µM (inactive) | 61.9 µM (inactive) | 25.4 µM (inactive) | 19.5 µM (inactive) | 29.5 µM (inactive) | 29.7 µM (inactive) | 18.7 µM (inactive) | 24.3 µM (inactive) | 44.2 µM (inactive) |
| CC(C)=CCC[C@@H](C)C1=C(O)C(=O)C(C)=C(N)C1=O | 27.3 µM (inactive) | 23.9 µM (inactive) | 47.8 µM (inactive) | 24.6 µM (inactive) | 15.6 µM (inactive) | 42.7 µM (inactive) | 29 µM (inactive) | 6.11 µM (inactive) | 3.43 µM (inactive) | 53.8 µM (inactive) | 14.1 µM (inactive) | 12.9 µM (inactive) | 32.5 µM (inactive) | 38.9 µM (inactive) | 23.2 µM (inactive) | 3.9 µM (inactive) | 28.8 µM (inactive) | 24 µM (inactive) | 29.9 µM (inactive) | 31.6 µM (inactive) |
| CCOC(=O)C1(C#N)OC(=O)c2cnccc21 (stereo not given) | > 100 µM (inactive) | > 100 µM (inactive) | > 100 µM (inactive) | > 100 µM (inactive) | > 100 µM (inactive) | > 100 µM (inactive) | > 100 µM (inactive) | > 100 µM (inactive) | > 100 µM (inactive) | > 100 µM (inactive) | > 100 µM (inactive) | > 100 µM (inactive) | > 100 µM (inactive) | > 100 µM (inactive) | > 100 µM (inactive) | > 100 µM (inactive) | > 100 µM (inactive) | > 100 µM (inactive) | > 100 µM (inactive) | > 100 µM (inactive) |
| C[C@H](CCC(=O)NCC(=O)O)[C@H]1CC[C@H]2[C@@H]3[C@H](O)C[C@@H]4C[C@H](O)CC[C@]4(C)[C@H]3CC[C@]12C | > 100 µM (inactive) | > 100 µM (inactive) | > 100 µM (inactive) | > 100 µM (inactive) | > 100 µM (inactive) | > 100 µM (inactive) | > 100 µM (inactive) | > 100 µM (inactive) | > 100 µM (inactive) | > 100 µM (inactive) | 71.6 µM (inactive) | > 100 µM (inactive) | > 100 µM (inactive) | > 100 µM (inactive) | > 100 µM (inactive) | > 100 µM (inactive) | 0.75 µM (active) | > 100 µM (inactive) | > 100 µM (inactive) | > 100 µM (inactive) |
| CC/C(Cl)=N\OC(=O)Nc1ccc(OC)cc1 | 15.4 µM (inactive) | 5.89 µM (inactive) | 15.9 µM (inactive) | 6.14 µM (inactive) | 8.57 µM (inactive) | 17.3 µM (inactive) | 18.2 µM (inactive) | 1.75 µM (inactive) | 1.85 µM (inactive) | 2.43 µM (inactive) | 1.84 µM (inactive) | 17 µM (inactive) | 24 µM (inactive) | 14.4 µM (inactive) | 1.98 µM (inactive) | 6.17 µM (inactive) | 6.27 µM (inactive) | 1.65 µM (inactive) | 16.7 µM (inactive) | 4.89 µM (inactive) |
| COc1cccc(C[C@H]2COC(=O)[C@]2(O)Cc2cccc(OC)c2)c1 | > 100 µM (inactive) | 18.1 µM (inactive) | > 100 µM (inactive) | > 100 µM (inactive) | 60.1 µM (inactive) | > 100 µM (inactive) | > 100 µM (inactive) | > 100 µM (inactive) | 72.6 µM (inactive) | 79.6 µM (inactive) | 60.5 µM (inactive) | 83 µM (inactive) | > 100 µM (inactive) | > 100 µM (inactive) | > 100 µM (inactive) | 66.5 µM (inactive) | > 100 µM (inactive) | 18.1 µM (inactive) | 90.4 µM (inactive) | > 100 µM (inactive) |
